In ChEMBL document CHEMBL1201862, “PubChem BioAssay data set” (2004):
The source made the active and inactive calls.

Legend:
[1] = target: T1, Short transient receptor potential channel 4 (Mus musculus, UniProt Q9QUQ5); experiment: mouse TRPC4 channel activators, dose response, cell-based, HEK293 TRPC4/mu-opioid, Fluo-4 calcium (AID 434937); format: functional
T1 sequence (Q9QUQ5 whole entry): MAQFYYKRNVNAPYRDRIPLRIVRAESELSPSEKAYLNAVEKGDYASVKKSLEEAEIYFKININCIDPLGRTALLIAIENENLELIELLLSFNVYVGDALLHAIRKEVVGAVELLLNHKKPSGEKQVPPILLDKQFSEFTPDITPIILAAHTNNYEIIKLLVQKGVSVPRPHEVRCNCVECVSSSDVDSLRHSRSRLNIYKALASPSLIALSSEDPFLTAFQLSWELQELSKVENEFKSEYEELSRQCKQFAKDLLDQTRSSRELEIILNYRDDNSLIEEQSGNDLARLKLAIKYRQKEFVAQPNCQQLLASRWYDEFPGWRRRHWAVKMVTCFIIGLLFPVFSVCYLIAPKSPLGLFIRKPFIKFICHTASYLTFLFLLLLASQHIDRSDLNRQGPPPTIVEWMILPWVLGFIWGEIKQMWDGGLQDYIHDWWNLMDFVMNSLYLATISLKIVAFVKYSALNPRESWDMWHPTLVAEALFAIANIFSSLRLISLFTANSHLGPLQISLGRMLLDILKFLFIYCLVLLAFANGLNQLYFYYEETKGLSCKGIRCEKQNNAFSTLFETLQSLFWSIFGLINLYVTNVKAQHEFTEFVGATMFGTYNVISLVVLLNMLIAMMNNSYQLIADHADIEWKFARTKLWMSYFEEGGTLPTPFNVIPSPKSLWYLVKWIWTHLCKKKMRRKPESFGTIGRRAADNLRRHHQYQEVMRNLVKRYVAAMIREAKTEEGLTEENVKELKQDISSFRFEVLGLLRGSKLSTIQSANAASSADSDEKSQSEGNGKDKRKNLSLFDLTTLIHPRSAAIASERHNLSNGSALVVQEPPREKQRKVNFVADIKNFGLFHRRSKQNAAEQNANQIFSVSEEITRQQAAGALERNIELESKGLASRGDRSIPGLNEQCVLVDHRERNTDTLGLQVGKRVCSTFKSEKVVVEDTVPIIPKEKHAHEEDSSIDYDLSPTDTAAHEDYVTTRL

[2] = microbe, parasite or virus in culture; format: functional; settings: Mycobacterium tuberculosis
[3] = target: T2, RNA-binding protein pos-1 (Caenorhabditis elegans, UniProt G5EF15); experiment: inhibitors of POS-1/mex-3 RNA binding, dose response, biochemical, fluorescence polarization (AID 1964);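 further: purified POS-1 fused to maltose binding protein made in E. coli; potency of compounds blocking POS-1 binding to fluorescent RNA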
T2 sequence (G5EF15 whole entry): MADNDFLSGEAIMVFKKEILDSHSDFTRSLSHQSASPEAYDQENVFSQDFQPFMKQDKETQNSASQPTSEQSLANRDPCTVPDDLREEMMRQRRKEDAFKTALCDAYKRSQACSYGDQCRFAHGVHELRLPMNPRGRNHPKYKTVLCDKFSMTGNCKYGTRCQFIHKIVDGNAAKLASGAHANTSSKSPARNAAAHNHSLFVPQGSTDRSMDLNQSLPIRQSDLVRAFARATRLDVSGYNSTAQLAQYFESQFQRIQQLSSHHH

[4] = target: T3, Zinc finger protein mex-5 (Caenorhabditis elegans, UniProt Q9XUB2); experiment: MEX-5/TCR-2 RNA interaction inhibitors, dose response, biochemical, C. elegans, fluorescence polarization (AID 1960)
T3 sequence (Q9XUB2 whole entry): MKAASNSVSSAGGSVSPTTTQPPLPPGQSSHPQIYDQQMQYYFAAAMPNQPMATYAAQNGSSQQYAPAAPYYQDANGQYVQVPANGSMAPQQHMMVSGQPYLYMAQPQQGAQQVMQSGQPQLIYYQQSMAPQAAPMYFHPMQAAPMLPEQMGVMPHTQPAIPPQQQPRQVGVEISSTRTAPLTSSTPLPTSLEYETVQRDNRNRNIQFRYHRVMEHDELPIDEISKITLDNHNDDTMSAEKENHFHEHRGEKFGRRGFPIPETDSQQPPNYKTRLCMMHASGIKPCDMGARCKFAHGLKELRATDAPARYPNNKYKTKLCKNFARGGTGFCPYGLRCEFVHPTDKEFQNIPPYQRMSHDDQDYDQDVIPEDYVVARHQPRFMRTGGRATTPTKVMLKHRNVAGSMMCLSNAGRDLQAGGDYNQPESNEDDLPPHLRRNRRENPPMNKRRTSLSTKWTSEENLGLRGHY

[5] = system: H9c2; experiment: cells; format: functional, cell-based; settings: Rattus norvegicus, H9c2, Myocardium;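 further: confirmatory concentration-response retest of ultra-high-throughput screening hits for modulation of myocardial damage; cell death induced by hydrogen peroxide oxidative stress; compound pretreatment for 60 min then peroxide exposure for 2 h; potency is for protecting the cells against peroxide damage rather than for killing them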
[6] = cells; format: functional
[7] = target: T4, Corticotropin-releasing factor receptor 2/Corticotropin-releasing factor-binding protein (Homo sapiens, UniProt P24387+Q13324); experiment: activators of CRF receptor 2 with binding protein – uHTS hits, confirmation (AID 602473); format: functional; settings: read-out: EC50_Mean
T4 sequence (Q13324 whole entry): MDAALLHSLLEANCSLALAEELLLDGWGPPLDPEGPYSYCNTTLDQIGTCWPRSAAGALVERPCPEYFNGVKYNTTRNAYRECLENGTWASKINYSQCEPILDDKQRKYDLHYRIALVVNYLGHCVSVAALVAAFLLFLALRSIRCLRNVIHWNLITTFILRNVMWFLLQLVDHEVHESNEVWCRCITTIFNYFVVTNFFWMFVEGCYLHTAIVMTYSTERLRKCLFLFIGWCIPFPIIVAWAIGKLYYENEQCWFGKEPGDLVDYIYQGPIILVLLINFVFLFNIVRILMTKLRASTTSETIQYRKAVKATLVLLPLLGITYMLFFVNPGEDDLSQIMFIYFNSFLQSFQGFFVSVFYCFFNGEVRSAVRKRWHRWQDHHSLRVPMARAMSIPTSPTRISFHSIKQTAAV
T4 sequence (P24387 whole entry): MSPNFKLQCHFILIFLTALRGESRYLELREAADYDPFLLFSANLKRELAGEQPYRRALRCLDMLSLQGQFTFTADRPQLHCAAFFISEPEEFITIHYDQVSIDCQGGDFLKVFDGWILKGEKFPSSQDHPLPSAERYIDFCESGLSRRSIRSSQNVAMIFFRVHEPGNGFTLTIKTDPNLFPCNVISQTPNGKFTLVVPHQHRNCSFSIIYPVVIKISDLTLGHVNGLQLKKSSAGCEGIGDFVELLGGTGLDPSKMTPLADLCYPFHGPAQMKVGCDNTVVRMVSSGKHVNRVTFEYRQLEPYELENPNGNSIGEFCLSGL

[8] = target: T4, Corticotropin-releasing factor receptor 2/Corticotropin-releasing factor-binding protein; experiment: Dose Response confirmation of uHTS hits for small molecule antagonists of the CRF-binding protein and CRF-R2 receptor complex.; format: functional; settings: read-out: IC50_Mean
[9] = target: T5, Carboxy-terminal domain RNA polymerase II polypeptide A small phosphatase 1 (Homo sapiens, UniProt Q9GZU7); experiment: inhibitors of CTDSP1, concentration-response testing, biochemical assay, absorbance-based, actives from ultra-high-throughput screening (AID 540297); format: functional
T5 sequence (Q9GZU7 whole entry): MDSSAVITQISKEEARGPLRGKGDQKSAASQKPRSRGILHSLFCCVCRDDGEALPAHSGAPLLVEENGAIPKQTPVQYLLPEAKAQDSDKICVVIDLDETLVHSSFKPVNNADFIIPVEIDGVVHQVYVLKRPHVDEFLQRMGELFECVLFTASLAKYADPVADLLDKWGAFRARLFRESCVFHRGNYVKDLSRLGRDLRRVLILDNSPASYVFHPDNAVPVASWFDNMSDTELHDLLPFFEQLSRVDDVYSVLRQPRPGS

[10] = target: T6, Polyadenylate-binding protein 1 (Homo sapiens, UniProt P11940); experiment: PABP1 MLLE–PAM2 binding inhibitor potency, dose response, biochemical, fluorescence polarization, FITC-PAM2 peptide (AID 602259); format: functional; settings: read-out: IC50_Mean
[11] = target: T6, Polyadenylate-binding protein 1; experiment: PABP1 MLLE–PAM2 interaction inhibitors, dose response, miRNA deadenylation inhibitor project, biochemical, fluorescence polarization, Cy5-PAM2 peptide, secondary (AID 602260); format: functional; settings: read-out: IC50_Mean
[12] = inhibitors of intracellular T. cruzi replication, confirmation, NIH3T3 host cells, beta-gal luminescence (AID 2044); format: functional, cell-based;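 further: intracellular parasites grown in NIH/3T3 mouse fibroblasts as host cells; luminescent beta-galactosidase reporter signal from transgenic T. cruzi replicating inside host cells; inhibitors lower the luminescence signal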
[13] = cytotoxicity toward NIH3T3 fibroblasts, dose response, counter-screen, cell-based, ATP luminescence, mouse fibroblasts (AID 2010); format: functional;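 further: cells exposed to compound for about 90 hours before reading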
[14] = system: Streptococcus; experiment: Group A Streptococcus viability loss, dose response, counter-screen for streptokinase expression inhibitor project, luminescence, BacTiterGlo (AID 1915); format: functional, organism-based;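 further: potency for reduction of bacterial viability or growth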
[15] = system: Streptococcus sp. 'group A'; experiment: growth inhibition of control SK(-) GAS strain, dose response, counter-screen for streptokinase expression inhibitor project, luminescence, kanamycin, BacTiterGlo, confirmation (AID 1900); format: functional, organism-based
[16] = target: T7, Streptokinase A (Streptococcus pyogenes serotype M1, UniProt P10520); experiment: S. pyogenes streptokinase expression inhibitors, potency, dose response, plasminogen activation absorbance, OD405 (AID 1914); format: functional, Streptococcus pyogenes M1 GAS;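 further: secreted streptokinase activity via plasminogen activation per viability signal from cell pellet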
T7 sequence (P10520 whole entry): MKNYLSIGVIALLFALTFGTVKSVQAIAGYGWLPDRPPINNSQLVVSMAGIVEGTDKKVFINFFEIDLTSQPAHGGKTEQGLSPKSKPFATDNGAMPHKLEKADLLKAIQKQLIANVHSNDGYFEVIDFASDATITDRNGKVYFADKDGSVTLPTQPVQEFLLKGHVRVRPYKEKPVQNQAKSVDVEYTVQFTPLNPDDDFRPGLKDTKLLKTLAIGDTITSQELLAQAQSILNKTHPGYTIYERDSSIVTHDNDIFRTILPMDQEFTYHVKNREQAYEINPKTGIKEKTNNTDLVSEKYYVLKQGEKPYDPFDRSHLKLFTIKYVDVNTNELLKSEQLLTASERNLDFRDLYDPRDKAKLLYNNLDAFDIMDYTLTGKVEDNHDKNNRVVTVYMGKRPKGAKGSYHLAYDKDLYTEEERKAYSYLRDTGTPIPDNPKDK

T6 sequence (P11940 whole entry): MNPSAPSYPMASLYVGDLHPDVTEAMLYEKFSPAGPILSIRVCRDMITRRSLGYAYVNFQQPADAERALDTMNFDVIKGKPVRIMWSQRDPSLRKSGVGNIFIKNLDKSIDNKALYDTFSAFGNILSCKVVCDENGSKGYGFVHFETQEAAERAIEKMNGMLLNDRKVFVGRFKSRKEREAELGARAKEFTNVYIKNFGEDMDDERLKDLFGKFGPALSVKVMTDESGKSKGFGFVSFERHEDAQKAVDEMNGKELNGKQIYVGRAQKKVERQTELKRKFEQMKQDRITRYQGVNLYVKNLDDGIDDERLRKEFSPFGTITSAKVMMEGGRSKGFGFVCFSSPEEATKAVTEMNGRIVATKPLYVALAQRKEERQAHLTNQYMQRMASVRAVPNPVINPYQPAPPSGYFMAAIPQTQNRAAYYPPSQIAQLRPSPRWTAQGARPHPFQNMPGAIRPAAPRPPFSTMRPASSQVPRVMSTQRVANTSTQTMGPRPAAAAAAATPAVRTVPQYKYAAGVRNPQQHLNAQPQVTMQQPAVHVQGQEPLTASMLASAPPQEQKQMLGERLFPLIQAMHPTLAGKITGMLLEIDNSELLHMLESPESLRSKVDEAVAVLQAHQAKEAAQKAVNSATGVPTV

S=C(NCCc1ccccn1)NC1CCCCC1
EC50 [1]: 6.68 µM (active)

CC/N=c1\scc(-c2ccco2)n1/N=C/c1ccc(OC)c(O)c1
CC50 [2]: > 40 µM (active)

Cn1c(=O)[nH]c(=O)c2c1nc(N/N=C/C(Br)=C/c1ccccc1)n2CCO
EC50 [3]: 206 µM (active)
EC50 [4]: 55.5 µM (active)

O=C(CSc1ccc(-c2ccccn2)nn1)N1CCCc2ccccc21
IC50 [5]: 20.8 µM (active)

Cc1c(C(=O)N(C)C)sc2nc(-c3ccccn3)nc(O)c12
CC50 [2]: > 40 µM (active)
IC50 [6]: 9.8 µM (active)

NC(=O)c1ccsc1NC(=O)COC(=O)Cc1nnc(O)c2ccccc12
IC50 [5]: > 79 µM (inactive)

COC(=O)CNC(=O)C1Nc2ccccc2C2C=CCC12 (stereo unspecified)
EC50 [3]: > 300 µM (not active)
EC50 [4]: 173 µM (active)

N#C/C(=C1\CCCN1)c1nc(O)c2ccccc2n1
EC50 [7]: > 53 µM (inactive)
IC50 [5]: 60.4 µM (inactive)
IC50 [8]: > 47.1 µM (inactive)

Cc1nn(-c2cc(Cl)ccc2N)c(=O)c2ccccc12
IC50 [9]: 63.2 µM (active)

CC1C2C(C)N(C)C(=O)N(C)C2N(C)C(=O)N1C (stereo unspecified)
IC50 [10]: 29.1 µM (inactive)
EC50 [3]: 25 µM (active)
EC50 [4]: 18.5 µM (active)
IC50 [11]: > 66 µM (inactive)

N#CCC(=O)N/N=C/c1ccc(Sc2nc3ccccc3s2)o1
IC50 [9]: 9.4 µM (active)

Cc1ccc(-c2ccc(=O)n(CC(=O)N3CCN(c4cc(Cl)ccc4C)CC3)n2)cc1
CC50 [2]: > 40 µM (active)

O=C(Nc1cccc(-c2csc(Nc3ccc(Cl)cc3)n2)c1)c1cccc(C(F)(F)F)c1
CC50 [2]: 20.6 µM (active)

COc1ccc(-c2nc(CSCC(=O)NC3CCN(Cc4ccccc4)CC3)c(C)o2)cc1OC
EC50 [1]: 1.5 µM (active)

C[C@H]1OC[C@@H](C[N+](C)(C)C)O1
EC50 [1]: 0.188 µM (active)

C=C1c2cccc(OC)c2O[C@H](C(=O)OCC)[C@@H]1CCCCCC
IC50 [9]: 10.2 µM (active)

CN(C)CCCN(C(=O)c1ccc(S(=O)(=O)N2CCCCCC2)cc1)c1nc2ccc(F)cc2s1
EC50 [1]: 4.22 µM (active)

NC(=O)c1ccccc1OCC(=O)Nc1cccnc1Cl
IC50 [5]: 27.7 µM (active)

COc1cc(/C=N/NC(=O)c2ccncc2)ccc1OC(=O)c1cccc(F)c1
IC50 [6]: 0.48 µM (active)

Cc1cc(=O)oc2cc(OCC(=O)N3CCN(C(=O)C4COc5ccccc5O4)CC3)c(Cl)cc12 (stereo unspecified)
IC50 [5]: > 79 µM (inactive)

NC(=S)N/N=C/c1ccccc1OCCSc1ccc(Cl)cc1
CC50 [2]: 24.6 µM (active)
EC50 [12]: 0.224 µM (active)
EC50 [13]: > 60 µM (not active)

COC(=O)COc1cccc(/C=N/NC(=O)CCSc2ccccc2)c1
IC50 [6]: 4.13 µM (active)

O=C(C1CC(=O)N(c2ccc3c(c2)OCCO3)C1)N1CCN(c2cccc(C(F)(F)F)c2)CC1 (stereo unspecified)
CC50 [2]: > 40 µM (active)

C=CCn1cc/c(=N\C=C(C#N)C#N)c2ccccc21
EC50 [3]: > 300 µM (not active)
EC50 [4]: > 300 µM (not active)

Brc1ccc(-c2ccc(/C=N/Nc3nncc(-c4ccccc4)n3)o2)cc1
CC50 [2]: 20.7 µM (active)

Cc1ccc(C2C(C(=O)c3ccco3)=C(O)C(=O)N2c2nnc(C)s2)cc1 (stereo unspecified)
EC50 [3]: > 300 µM (not active)
EC50 [4]: > 300 µM (inconclusive)

C=CCOC(=O)C1=C[C@H](c2cn(C(C)=O)c3ccccc23)C[C@H](OCc2ccc(CO)cc2)O1
IC50 [5]: 10.3 µM (active)

CCOc1ccc(C(=O)COC(=O)Cn2[nH]c(=O)c3ccccc3c2=O)cc1
IC50 [5]: > 79 µM (inactive)

Cc1ccc(/C=C2/Sc3ccc(C(=O)N4CCN(c5ccccn5)CC4)cc3NC2=O)cc1
EC50 [14]: 4.43 µM (active)
EC50 [3]: 27.2 µM (active)
EC50 [15]: 3.03 µM (active)
EC50 [4]: 5.05 µM (active)
EC50 [16]: > 150 µM (not active)

O=C(Cc1ccccc1)N/N=C/c1ccc2cccc(O)c2n1
CC50 [2]: > 40 µM (active)
